Assay results as given in ChEMBL document CHEMBL1201862, “PubChem BioAssay data set” (2004).
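Results reflect a 48-hour exposure of cells in 96-well plates to compound at five concentrations. GI50 is the concentration that inhibits growth by half.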 Calls of active or inactive are those of the source. No stated cut-off is given here; in the data, active = GI50 up to about 1.1 µM and inactive = higher.

Legend:
Assay in all cases: NCI anticancer screen, dose series, 48 h
SNB-78 = tested on: SNB-78
M19-MEL = tested on: M19-MEL
DMS-273 = tested on: DMS-273
KM-20L2 = tested on: KM-20L2
RXF 631 = tested on: RXF 631
DLD-1 = tested on: DLD-1
DMS-114 = tested on: DMS-114
HOP-18 = tested on: HOP-18
XF498 = tested on: XF498

| Structure (SMILES) | GI50 (SNB-78) | GI50 (M19-MEL) | GI50 (DMS-273) | GI50 (KM-20L2) | GI50 (RXF 631) | GI50 (DLD-1) | GI50 (DMS-114) | GI50 (HOP-18) | GI50 (XF498) |
| --- | --- | --- | --- | --- | --- | --- | --- | --- | --- |
| CCOC(=O)NC/C=C/CO | > 100 µM (inactive) | > 100 µM (inactive) | > 100 µM (inactive) | > 100 µM (inactive) | > 100 µM (inactive) | > 100 µM (inactive) | > 100 µM (inactive) | > 100 µM (inactive) | – |
| CC1OC(CC2C=CCc3c(O)c4c(c(O)c32)C(=O)c2ccccc2C4=O)CC(NC(=O)C(F)(F)F)C1O (centres undefined) | 4.18 µM (inactive) | 8.22 µM (inactive) | 6.32 µM (inactive) | 16.3 µM (inactive) | – | 7.38 µM (inactive) | 10 µM (inactive) | – | 1.91 µM (inactive) |
| CCC12C=CCN3CCC4(C(=C(C(=O)OC)[C@@H]1O)Nc1ccccc14)C32 (some centres undefined) | 2.8 µM (inactive) | 1.74 µM (inactive) | 1.69 µM (inactive) | 1.84 µM (inactive) | – | 1.67 µM (inactive) | 1.69 µM (inactive) | 1.71 µM (inactive) | 1.63 µM (inactive) |
| c1ccc(C(c2ccccc2)c2ccncc2)cc1 | > 100 µM (inactive) | > 100 µM (inactive) | > 100 µM (inactive) | > 100 µM (inactive) | > 100 µM (inactive) | > 100 µM (inactive) | > 100 µM (inactive) | > 100 µM (inactive) | > 100 µM (inactive) |
| CC(O)C(NC(=O)c1ccccc1)C(=O)N(Cc1ccccc1)Cc1ccccc1 (centres undefined) | > 100 µM (inactive) | > 100 µM (inactive) | > 100 µM (inactive) | > 100 µM (inactive) | > 100 µM (inactive) | > 100 µM (inactive) | > 100 µM (inactive) | 37 µM (inactive) | > 100 µM (inactive) |
| CC(C)(C)c1ccc(OCCOCCOc2ccc(C(C)(C)C)cc2S(=O)(=O)Nc2ccc([N+](=O)[O-])cc2)c(S(=O)(=O)Nc2ccc([N+](=O)[O-])cc2)c1 | 15.2 µM (inactive) | 6.11 µM (inactive) | 7.94 µM (inactive) | – | 6.82 µM (inactive) | 38.6 µM (inactive) | 9.42 µM (inactive) | 9.75 µM (inactive) | – |
| Cc1cc2occ(-c3ccc(Cl)cc3)c2c(=O)o1 | > 100 µM (inactive) | – | > 100 µM (inactive) | > 100 µM (inactive) | > 100 µM (inactive) | 76 µM (inactive) | > 100 µM (inactive) | > 100 µM (inactive) | – |
| CCc1cccc(C(C)C)c1NC(=O)CCl | > 100 µM (inactive) | 58.3 µM (inactive) | > 100 µM (inactive) | > 100 µM (inactive) | 19.7 µM (inactive) | > 100 µM (inactive) | – | – | > 100 µM (inactive) |
| COc1ccc(OC)c(/C=N/N=C(\N)NO)c1 | 82.6 µM (inactive) | 61 µM (inactive) | 6.31 µM (inactive) | – | 37.6 µM (inactive) | 17.2 µM (inactive) | 14.9 µM (inactive) | – | 18 µM (inactive) |
| Cc1c(-c2coc(-c3ccc(Cl)cc3)n2)c(=O)n(-c2ccccc2)n1C | > 100 µM (inactive) | > 100 µM (inactive) | > 100 µM (inactive) | > 100 µM (inactive) | – | > 100 µM (inactive) | – | – | 19.1 µM (inactive) |
| Cc1ccc(Sc2ccccc2N)cc1 | 84.7 µM (inactive) | 41.6 µM (inactive) | 30.8 µM (inactive) | 39.9 µM (inactive) | 29 µM (inactive) | – | 43.4 µM (inactive) | 77.8 µM (inactive) | – |
| CCCCc1c2c(nc3c1CCc1cc(C=O)c(N)nc1-3)/C(=C/c1ccccc1)CCC2 | > 100 µM (inactive) | > 100 µM (inactive) | > 100 µM (inactive) | > 100 µM (inactive) | – | – | > 100 µM (inactive) | > 100 µM (inactive) | 44.4 µM (inactive) |
| O=C(Nc1nc2ncn(CCI)c2c(=O)[nH]1)c1ccccc1 | > 56.1 µM (inactive) | > 100 µM (inactive) | > 100 µM (inactive) | > 100 µM (inactive) | > 100 µM (inactive) | – | – | > 56.1 µM (inactive) | 20.4 µM (inactive) |
| C[S+]([O-])c1cc(=O)c2ccccc2s1 (centres undefined) | 7.52 µM (inactive) | 6.03 µM (inactive) | 8.67 µM (inactive) | 6.25 µM (inactive) | – | 2.14 µM (inactive) | 4.2 µM (inactive) | 10.3 µM (inactive) | 4.1 µM (inactive) |
| N#CC(C(=O)C(=O)Nc1c(Cl)cccc1Cl)c1ccccc1 (centres undefined) | > 10 µM (inactive) | > 10 µM (inactive) | > 10 µM (inactive) | > 10 µM (inactive) | > 10 µM (inactive) | > 10 µM (inactive) | > 10 µM (inactive) | > 10 µM (inactive) | > 100 µM (inactive) |
| Cc1ccccc1NC(=O)C(=O)C(C(=O)c1ccccc1F)C1OC(=O)c2ccccc21 (centres undefined) | 13.3 µM (inactive) | – | 23.3 µM (inactive) | 38.3 µM (inactive) | 26.9 µM (inactive) | 22.2 µM (inactive) | 10.2 µM (inactive) | 23.4 µM (inactive) | – |
| O=C(Nc1ccccc1[N+](=O)[O-])C(=O)C(C(=O)c1ccccc1-c1ccccc1)C1OC(=O)c2ccccc21 (centres undefined) | 20.1 µM (inactive) | 12.6 µM (inactive) | 14.3 µM (inactive) | 18.2 µM (inactive) | 13.4 µM (inactive) | 21.4 µM (inactive) | 13.6 µM (inactive) | 14.1 µM (inactive) | – |
| C[C@H]1C=C2C(=O)O[C@H]3CC[C@@H](C1)[C@@]23O | 2.82 µM (inactive) | 3.76 µM (inactive) | – | 4.91 µM (inactive) | – | 2.7 µM (inactive) | 2.62 µM (inactive) | 3.18 µM (inactive) | – |
| CC(=O)OCSc1ncnc2c1ncn2CN1CCOCC1 | > 100 µM (inactive) | 59 µM (inactive) | 5.11 µM (inactive) | 7.59 µM (inactive) | – | 6.55 µM (inactive) | 6.53 µM (inactive) | 40.1 µM (inactive) | – |
| CC(=O)OC12C(C)=C(C)C(=O)N1c1ccccc1N2C(C)=O (centres undefined) | > 100 µM (inactive) | > 100 µM (inactive) | > 100 µM (inactive) | > 100 µM (inactive) | – | – | – | > 100 µM (inactive) | > 100 µM (inactive) |
| CC(=O)OC1CCC2C(=CCC3C2(C)C(=O)CC2(C)C(C4(C)OC(C(C)C)=CC4=O)C(O)CC32C)C1(C)C (centres undefined) | 78.3 µM (inactive) | 12.6 µM (inactive) | 23.3 µM (inactive) | 17.9 µM (inactive) | – | 32.5 µM (inactive) | 25.8 µM (inactive) | – | 31.3 µM (inactive) |
| O=C1c2cccc3cc([N+](=O)[O-])cc(c23)C(=O)N1CCNCCNCCNCCN1C(=O)c2cccc3cc([N+](=O)[O-])cc(c23)C1=O | 0.0553 µM (active) | – | < 0.001 µM (active) | 0.01 µM (active) | – | < 0.001 µM (active) | – | 0.149 µM (active) | – |
